{
  "source": "patent US6046231A",
  "about": "“Use of 4'-bromoflavone in a cancer chemopreventative composition and method” (The Board of Trustees of the University of Illinois, priority 1999, dated 2000)",
  "key": {"[1]": {"tested_on": "QR mRNA, Hepa 1c1c7 cells", "assay": "RT-PCR of QR mRNA in Hepa 1c1c7 cells", "format": "cell-based, murine", "experimental": "RT-PCR Analysis of QR mRNA Expression. Primers were designed based on rat QR gene and custom synthesis. Total RNA was isolated from cultured Hepa 1c1c7 cells with TRIzol® reagent (Life Technologies, Inc.) and quantified using a UV-spectrometer. The reverse transcription of RNA was performed in a final volume of 20 μl containing 5× First Straind Synthesis Buffer (Life Technologies, Inc.), 5 mM MgCl2, 1 mM of each dNTPs, 1 unit Rnase inhibitor (Life Technologies, Inc.), 2.5 units SuperScript II reverse transcriptase (Life Technologies, Inc.), 2.5 μM oligo (dT)16, 0.2 μg total RNA, and DEPC-treated water. After incubation at 47° C. for 30 min, the RT-reaction was terminated by heating to 70° C. for 15 minutes. To the newly synthesized cDNA (1 μL), a PCR reaction mixture (Advantage KlenTaq polymerase Mix, CloneTech) containing 3 mM MgCl2, 2.5 units Taq polymerase, 6 pmol of primers for QR gene (5'-[…]-3'; and 3 pmol of primers for β-actin, 5'-[…]-3'), (5'-[…]-3'; 5'-[…]-3') as internal control was added to bring the final volume to 50 μl. The PCR reaction was heated to 94° C. for 1 min and immediately cycled 27 times through a 30 second denaturing step at 94° C., a 45 second annealing step at 55° C., a 60 second elongation step at 72° C. with Perkin Elmer 2400 themocycler. Following the final cycle, a 5 minute elongation step at 72° C. was performed. Aliquots of the PCR product were electrophoresed on 2.5% agarose gels (Life Technologies, Inc.), and PCR fragments were visualized with ethidium bromide staining, quantified by scanning densitometry, and expressed as folds increase after normalization to β-actin gene expression.\nInduction of QR mRNA in Hepa 1c1c7 Cells. […] EHPA 1c1c7 cells were treated with 4'-BF (10 μM) or DMSO (solvent control) for 2, 4, 8, 16, 24, or 48 hours. […] Dose-dependent effects of 4'-BF were analyzed at the time of maximum induction (24 hours), and QR mRNA expression was induced in the concentration range of 0.8-50 μM. In particular, FIG. 2 illustrates RT-PCR analysis of QR mRNA levels in Hepa 1c1c7 cells after treatment with 4'-BF. In FIG. 2(A), Hepa 1c1c7 cells were treated with the indicated concentrations of 4'-BF for 24 hours. In FIG. 2(B), Hepa 1c1c7 cells were treated with 10 μM 4'-BF for the indicated periods of time. Reverse transcription was carried out by SuperScript II reverse transcriptase (Life Technologies, Inc.) and oligo(dT)16. The cDNA was amplified with Advantage Klen Taq polymerase (Clontech) by using QR primers and β-acrin (internal control), aliquots of the PCR product were electrophoresed on 2.5% agarose gels (Bio-Rad), and PCR fragments were visualized with ethidium bromide staining."}, "quinone reductase (QR)": {"tested_on": "quinone reductase (QR)", "assay": "QR activity in rat tissues after dietary administration", "format": "in vivo, Sprague Dawley rat", "experimental": "Analysis of Quinone Reductase Activity and Glutathione Level in Rat Tissues. Spraque Dawley rats (n=10) at 43 days of age were placed on an appropriate experimental diet (5000, 2500, 1250, 625, and 312.5 mg/kg diet of 4'-BF) for three weeks. After three weeks, animals were sacrificed by carbon dioxide (CO2) asphyxiation. The livers, mammary glands, colons, stomachs, and lungs were collected, rinsed with saline, and frozen in liquid nitrogen and stored at -80° C. until enzyme activities were determined. Individual tissues (except mammary glands) were homogenized in 0.25 M sucrose and centrifuged at 15,000×g for 30 min at 4° C. The supernatant fluids were collected, 20% volume of 0.1 M CaCl2 in 0.25 M sucrose were added. After incubation at 0° C. for 30 min and further centrifuging at 15,000×g for 30 min at 4° C., a clear cytosolic fraction was used for enzyme assay. Mammary glands of each animal were pooled, homogenized in 1 ml ice-cold 0.1 M phosphate buffer pH 6.5 and centrifuged (15,000×g, 30 min at 4° C.), a clear supernatant suitable for enzyme assay resulted. Dicumarol-sensitive QR activity was measured in duplicate in 50 μl of suitable dilution of the tissue supernatant as described for the cellular system. GSH levels were assayed in duplicate using 96-well plates. […] The plates were shaken for 5-10 min and the extent of 2-nitro-5-thiobenzoic acid formation was monitored at 405 nm. A GSH standard curve was used to calculate the GSH content. GSH levels were expressed as nmol/mg protein.\nInduction of Quinone Reductase Activity and Glutathione Level in Rat Tissues. Based on the results in cell cultures, 4'-BF was further evaluated for its inducing potency in rat liver, mammary gland, colon, stomach, and lung. […] The concentration of 4'-BF for maximum induction of GSH was about 1250 to about 2500 mg/kg diet, but varied for different organ sites."}},
  "data": [
    {"compound": "O=c1cc(-c2ccc(Br)cc2)oc2ccccc12", "note": "[4'-Bromoflavone]", "values": [
      {"measurement": "QR mRNA levels", "setting": "[1]; 0-50 μM for 24 h", "value": "significantly increased by 4'-BF at various concentrations"},
      {"measurement": "QR mRNA, time course from 8 to 24 hours", "setting": "[1]; 10 μM", "value": "no significant differences from 8 to 24 hours"},
      {"measurement": "incubation time after which QR mRNA increased", "setting": "[1]; 10 μM", "value": 8, "unit": "h"},
      {"measurement": "time of maximum QR mRNA induction", "setting": "[1]; 10 μM", "value": 24, "unit": "h"},
      {"measurement": "concentration range of QR mRNA induction", "setting": "[1]; 24 h", "value": "0.8 to 50", "unit": "µM"},
      {"measurement": "QR activity induction, colon", "setting": "quinone reductase (QR); colon, 312.5-5000 mg/kg diet, 3 weeks", "value": "2.09-4.81 fold"},
      {"measurement": "QR activity in rat tissues", "setting": "quinone reductase (QR); liver, mammary gland, colon, stomach, lung, short-term dietary, P<0.0001", "value": "significantly increased"},
      {"measurement": "QR activity induction, liver", "setting": "quinone reductase (QR); liver, 312.5-5000 mg/kg diet, 3 weeks", "value": "2.22-7.60 fold"},
      {"measurement": "QR activity induction, lung", "setting": "quinone reductase (QR); lung, 312.5-5000 mg/kg diet, 3 weeks", "value": "2.18-5.25 fold"},
      {"measurement": "QR activity induction, mammary gland", "setting": "quinone reductase (QR); mammary gland, 312.5-5000 mg/kg diet, 3 weeks", "value": "1.59-5.52 fold"},
      {"measurement": "QR activity induction, stomach", "setting": "quinone reductase (QR); stomach, 312.5-5000 mg/kg diet, 3 weeks", "value": "1.97-3.42 fold"}
    ]}
  ]
}
